Where two headings read alike, the source gives them in different places.
Tests used:
kinases (468) [1] = target: kinases (468) (Homo sapiens, UniProt Q15139); conditions: PRKD1; 1000 nM
kinases (468) [2] = target: kinases (468) (Homo sapiens, UniProt P08631); conditions: HCK; 1000 nM
kinases (468) [3] = target: kinases (468) (Homo sapiens, UniProt Q5S007, G2019S); conditions: LRRK2(G2019S); 1000 nM
kinases (468) [4] = target: kinases (468) (Homo sapiens, UniProt Q9NRH2); conditions: kinase SNRK (Entrez SNRK); compound concentration 1000 nM
kinases (468) [5] = target: kinases (468) (Homo sapiens, UniProt P00533, L861Q); conditions: EGFR(L861Q); 1000 nM
kinases (468) [6] = target: kinases (468) (Homo sapiens, UniProt P00533, G719S); conditions: EGFR(G719S); 1000 nM
kinases (468) [7] = target: kinases (468) (Homo sapiens, UniProt Q8WTQ7); conditions: GRK7; 1000 nM
kinases (468) [8] = target: kinases (468) (Homo sapiens, UniProt Q9P286); conditions: PAK7; 1000 nM
kinases (468) [9] = target: kinases (468) (Homo sapiens, UniProt P12931); conditions: kinase SRC (Entrez SRC); compound concentration 1000 nM
kinases (468) [10] = target: kinases (468) (Homo sapiens, UniProt P54760); conditions: EPHB4; 1000 nM
kinases (468) [11] = target: kinases (468) (Homo sapiens, UniProt O15146); conditions: MUSK; 1000 nM
kinases (468) [12] = target: kinases (468) (Homo sapiens, UniProt Q16832); conditions: DDR2; 1000 nM
kinases (468) [13] = target: kinases (468) (Homo sapiens, UniProt P00533, T790M); conditions: EGFR(T790M); 1000 nM
kinases (468) [14] = target: kinases (468) (Homo sapiens, UniProt P07333); conditions: 1000 nM
kinases (468) [15] = target: kinases (468) (Homo sapiens, UniProt Q9P0L2); conditions: MARK1; 1000 nM
kinases (468) [16] = target: kinases (468) (Homo sapiens, UniProt P22455); conditions: FGFR4; 1000 nM
kinases (468) [17] = target: kinases (468) (Homo sapiens, UniProt P27361); conditions: ERK1 (MAPK3); 1000 nM
kinases (468) [18] = target: kinases (468) (Homo sapiens, UniProt Q16566); conditions: CAMK4; 1000 nM
kinases (468) [19] = target: kinases (468) (Homo sapiens, UniProt P07949); conditions: RET; 1000 nM
kinases (468) [20] = target: kinases (468) (Homo sapiens, UniProt O00238); conditions: BMPR1B; 1000 nM
kinases (468) [21] = target: kinases (468) (Homo sapiens, UniProt P51957); conditions: NEK4; 1000 nM
kinases (468) [22] = target: kinases (468) (Homo sapiens, UniProt Q9UIK4); conditions: DAPK2; 1000 nM
kinases (468) [23] = target: kinases (468) (Homo sapiens, UniProt Q15835); conditions: GRK1; 1000 nM
kinases (468) [24] = target: kinases (468) (Homo sapiens, UniProt O95835); conditions: LATS1; 1000 nM
kinases (468) [25] = target: kinases (468) (Homo sapiens, UniProt P08581, Y1235D); conditions: MET(Y1235D); 1000 nM
kinases (468) [26] = target: kinases (468) (Homo sapiens, UniProt P29376); conditions: LTK; 1000 nM
kinases (468) [27] = target: kinases (468) (Homo sapiens, UniProt P00519, Q252H); conditions: 1000 nM
kinases (468) [28] = target: kinases (468) (Homo sapiens, UniProt P42336, E545A); conditions: PIK3CA(E545A); 1000 nM
kinases (468) [29] = target: kinases (468) (Homo sapiens, UniProt Q9P289); conditions: MST4; 1000 nM
kinases (468) [30] = target: kinases (468) (Homo sapiens, UniProt O00141); conditions: kinase SGK (Entrez SGK1); compound concentration 1000 nM
kinases (468) [31] = target: kinases (468) (Homo sapiens, UniProt Q92918); conditions: HPK1 (MAP4K1); 1000 nM
kinases (468) [32] = target: kinases (468) (Homo sapiens, UniProt Q6XUX3); conditions: kinase RIPK5 (Entrez DSTYK); compound concentration 1000 nM
kinases (468) [33] = target: kinases (468) (Homo sapiens, UniProt O15264); conditions: p38-delta (MAPK13); 1000 nM
kinases (468) [34] = target: kinases (468) (Homo sapiens, UniProt P49674); conditions: CSNK1E; 1000 nM
kinases (468) [35] = target: kinases (468) (Homo sapiens, UniProt O00444); conditions: PLK4; 1000 nM

Measured: Percent Control

Chain of kinases (468) (Homo sapiens, UniProt P07333) (P07333 20-972): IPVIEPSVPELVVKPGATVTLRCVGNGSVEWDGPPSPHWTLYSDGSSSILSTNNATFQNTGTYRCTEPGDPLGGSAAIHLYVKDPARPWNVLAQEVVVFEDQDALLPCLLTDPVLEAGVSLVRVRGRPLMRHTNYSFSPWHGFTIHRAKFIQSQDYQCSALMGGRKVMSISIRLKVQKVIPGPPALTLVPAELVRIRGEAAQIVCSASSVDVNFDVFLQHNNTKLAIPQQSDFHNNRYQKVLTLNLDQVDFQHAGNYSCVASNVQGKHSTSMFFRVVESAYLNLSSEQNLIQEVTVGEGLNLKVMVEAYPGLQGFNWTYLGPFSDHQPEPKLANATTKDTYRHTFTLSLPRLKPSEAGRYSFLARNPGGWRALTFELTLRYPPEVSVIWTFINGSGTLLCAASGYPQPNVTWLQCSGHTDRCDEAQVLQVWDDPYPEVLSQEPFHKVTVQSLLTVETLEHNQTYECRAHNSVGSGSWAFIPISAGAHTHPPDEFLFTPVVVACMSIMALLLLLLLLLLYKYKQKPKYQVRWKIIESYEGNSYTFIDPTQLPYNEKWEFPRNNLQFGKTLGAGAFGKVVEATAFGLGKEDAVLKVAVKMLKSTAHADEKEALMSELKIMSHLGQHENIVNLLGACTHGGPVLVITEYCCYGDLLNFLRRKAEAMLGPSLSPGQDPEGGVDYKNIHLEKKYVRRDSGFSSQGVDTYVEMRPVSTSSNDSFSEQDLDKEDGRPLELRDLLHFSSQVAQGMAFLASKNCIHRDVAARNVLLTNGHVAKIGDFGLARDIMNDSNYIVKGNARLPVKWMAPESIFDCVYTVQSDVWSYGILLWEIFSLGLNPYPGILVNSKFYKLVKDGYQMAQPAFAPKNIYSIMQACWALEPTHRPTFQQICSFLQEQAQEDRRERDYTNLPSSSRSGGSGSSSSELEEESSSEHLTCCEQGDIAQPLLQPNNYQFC
Chain of kinases (468) (Homo sapiens, UniProt Q92918) (Q92918 whole entry): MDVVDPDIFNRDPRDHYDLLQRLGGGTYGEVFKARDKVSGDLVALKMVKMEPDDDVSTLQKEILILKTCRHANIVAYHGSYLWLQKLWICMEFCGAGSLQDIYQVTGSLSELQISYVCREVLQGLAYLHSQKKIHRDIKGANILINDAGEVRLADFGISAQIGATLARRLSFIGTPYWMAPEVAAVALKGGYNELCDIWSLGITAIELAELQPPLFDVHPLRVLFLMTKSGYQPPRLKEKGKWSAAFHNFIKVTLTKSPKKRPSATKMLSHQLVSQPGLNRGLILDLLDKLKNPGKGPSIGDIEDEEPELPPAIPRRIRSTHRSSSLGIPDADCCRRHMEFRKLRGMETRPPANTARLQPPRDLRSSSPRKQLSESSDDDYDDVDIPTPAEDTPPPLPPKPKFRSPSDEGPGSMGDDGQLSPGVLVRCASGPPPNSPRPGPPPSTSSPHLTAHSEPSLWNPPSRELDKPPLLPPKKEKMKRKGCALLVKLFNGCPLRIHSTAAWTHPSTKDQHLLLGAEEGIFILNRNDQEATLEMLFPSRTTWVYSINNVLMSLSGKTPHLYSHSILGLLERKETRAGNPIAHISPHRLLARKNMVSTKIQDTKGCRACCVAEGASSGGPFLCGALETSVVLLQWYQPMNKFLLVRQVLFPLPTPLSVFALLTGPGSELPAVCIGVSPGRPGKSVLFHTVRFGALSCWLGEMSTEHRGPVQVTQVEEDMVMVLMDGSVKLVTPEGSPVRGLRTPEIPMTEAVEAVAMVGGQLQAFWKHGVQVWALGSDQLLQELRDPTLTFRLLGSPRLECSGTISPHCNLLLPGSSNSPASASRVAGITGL
Chain of kinases (468) (Homo sapiens, UniProt Q9P289) (Q9P289 whole entry): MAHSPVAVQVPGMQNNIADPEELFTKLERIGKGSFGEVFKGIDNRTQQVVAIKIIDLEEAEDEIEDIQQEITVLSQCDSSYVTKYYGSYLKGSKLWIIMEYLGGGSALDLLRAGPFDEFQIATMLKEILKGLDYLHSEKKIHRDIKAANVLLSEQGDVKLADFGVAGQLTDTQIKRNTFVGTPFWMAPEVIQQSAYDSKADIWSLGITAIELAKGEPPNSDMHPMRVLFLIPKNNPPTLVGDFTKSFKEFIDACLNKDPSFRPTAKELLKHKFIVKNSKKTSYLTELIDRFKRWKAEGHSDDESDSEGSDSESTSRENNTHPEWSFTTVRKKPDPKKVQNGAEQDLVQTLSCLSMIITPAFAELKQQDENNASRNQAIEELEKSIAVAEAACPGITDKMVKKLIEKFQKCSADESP
Chain of kinases (468) (Homo sapiens, UniProt P00533, L861Q) (P00533 25-1210 L861Q, looked up): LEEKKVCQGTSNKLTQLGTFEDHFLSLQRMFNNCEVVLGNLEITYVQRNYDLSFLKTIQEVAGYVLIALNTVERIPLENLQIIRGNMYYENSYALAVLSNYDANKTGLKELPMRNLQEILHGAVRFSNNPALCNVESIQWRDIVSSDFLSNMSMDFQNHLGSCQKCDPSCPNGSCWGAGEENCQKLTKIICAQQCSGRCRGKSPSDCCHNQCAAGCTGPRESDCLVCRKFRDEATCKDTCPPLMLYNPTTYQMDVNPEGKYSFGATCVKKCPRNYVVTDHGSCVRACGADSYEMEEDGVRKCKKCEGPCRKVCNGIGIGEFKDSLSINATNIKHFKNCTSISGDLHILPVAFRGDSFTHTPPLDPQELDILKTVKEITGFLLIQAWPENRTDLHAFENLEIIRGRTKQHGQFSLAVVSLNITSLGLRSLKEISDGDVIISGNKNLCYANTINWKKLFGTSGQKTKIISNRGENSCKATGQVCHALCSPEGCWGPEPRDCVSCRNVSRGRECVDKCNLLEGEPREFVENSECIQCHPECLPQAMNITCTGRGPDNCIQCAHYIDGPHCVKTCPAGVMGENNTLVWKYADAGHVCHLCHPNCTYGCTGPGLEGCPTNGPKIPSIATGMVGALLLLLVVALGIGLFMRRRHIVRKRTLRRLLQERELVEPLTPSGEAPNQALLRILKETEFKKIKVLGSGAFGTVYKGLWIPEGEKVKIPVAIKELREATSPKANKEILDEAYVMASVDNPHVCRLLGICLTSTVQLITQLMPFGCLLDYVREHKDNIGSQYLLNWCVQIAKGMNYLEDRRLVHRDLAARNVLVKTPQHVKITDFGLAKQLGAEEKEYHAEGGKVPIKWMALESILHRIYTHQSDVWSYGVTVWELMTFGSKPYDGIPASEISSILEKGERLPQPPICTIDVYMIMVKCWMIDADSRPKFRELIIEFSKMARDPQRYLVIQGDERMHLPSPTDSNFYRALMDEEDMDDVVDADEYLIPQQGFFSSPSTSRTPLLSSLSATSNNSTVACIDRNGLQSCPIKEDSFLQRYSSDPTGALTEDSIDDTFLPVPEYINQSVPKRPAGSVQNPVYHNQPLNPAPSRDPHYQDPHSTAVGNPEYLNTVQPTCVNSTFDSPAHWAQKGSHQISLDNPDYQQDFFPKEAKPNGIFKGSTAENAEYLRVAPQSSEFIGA
Chain of kinases (468) (Homo sapiens, UniProt O00141) (O00141 whole entry): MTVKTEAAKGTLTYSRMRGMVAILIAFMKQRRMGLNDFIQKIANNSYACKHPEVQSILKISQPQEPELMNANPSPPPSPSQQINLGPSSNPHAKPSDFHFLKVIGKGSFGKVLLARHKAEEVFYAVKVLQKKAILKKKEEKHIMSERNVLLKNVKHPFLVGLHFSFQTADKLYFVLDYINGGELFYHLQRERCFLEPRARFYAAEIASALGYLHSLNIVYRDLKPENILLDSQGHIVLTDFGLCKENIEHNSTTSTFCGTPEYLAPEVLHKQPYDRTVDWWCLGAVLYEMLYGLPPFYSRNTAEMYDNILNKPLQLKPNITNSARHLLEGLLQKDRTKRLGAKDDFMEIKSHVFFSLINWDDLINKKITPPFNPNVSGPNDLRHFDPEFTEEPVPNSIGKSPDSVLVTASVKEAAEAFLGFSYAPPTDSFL
Chain of kinases (468) (Homo sapiens, UniProt Q16566) (Q16566 whole entry): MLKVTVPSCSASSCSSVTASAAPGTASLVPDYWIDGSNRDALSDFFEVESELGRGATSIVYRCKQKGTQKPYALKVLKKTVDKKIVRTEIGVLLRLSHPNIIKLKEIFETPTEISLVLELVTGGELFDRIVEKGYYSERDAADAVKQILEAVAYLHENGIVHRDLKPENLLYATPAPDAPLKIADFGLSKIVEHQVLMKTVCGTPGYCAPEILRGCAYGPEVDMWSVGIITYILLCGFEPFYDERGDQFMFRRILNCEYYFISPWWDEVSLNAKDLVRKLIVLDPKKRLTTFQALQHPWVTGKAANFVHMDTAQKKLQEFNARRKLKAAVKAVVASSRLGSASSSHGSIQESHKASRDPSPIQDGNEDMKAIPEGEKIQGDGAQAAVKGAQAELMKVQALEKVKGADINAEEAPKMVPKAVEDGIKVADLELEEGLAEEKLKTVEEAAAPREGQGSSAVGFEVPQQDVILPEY
Chain of kinases (468) (Homo sapiens, UniProt O00238) (O00238 14-502): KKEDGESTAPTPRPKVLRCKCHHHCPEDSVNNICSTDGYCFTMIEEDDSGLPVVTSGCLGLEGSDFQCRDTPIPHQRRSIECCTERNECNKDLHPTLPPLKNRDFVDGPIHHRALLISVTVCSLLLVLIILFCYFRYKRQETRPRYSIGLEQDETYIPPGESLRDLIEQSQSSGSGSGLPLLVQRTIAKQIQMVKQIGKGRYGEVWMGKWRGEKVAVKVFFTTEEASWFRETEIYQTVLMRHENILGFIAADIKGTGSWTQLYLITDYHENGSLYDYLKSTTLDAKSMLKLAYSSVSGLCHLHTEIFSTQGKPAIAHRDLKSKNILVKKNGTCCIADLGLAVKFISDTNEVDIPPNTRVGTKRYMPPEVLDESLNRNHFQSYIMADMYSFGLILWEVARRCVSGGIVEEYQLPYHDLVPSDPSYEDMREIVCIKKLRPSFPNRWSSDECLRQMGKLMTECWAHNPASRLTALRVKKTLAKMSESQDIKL

C[C@H]1C[C@@H](O)CN(c2ncc(Cl)c(Nc3ccc4c(c3)c3c(c(=O)n4C)OCC(F)(F)[C@H](C4CC4)N3)n2)C1 [CCT373566_9A]
100%: kinases (468) [5] | kinases (468) [6] | kinases (468) [9] | kinases (468) [10] | kinases (468) [11] | kinases (468) [12] | kinases (468) [13] | kinases (468) [14]; CSF1R | kinases (468) [15] | kinases (468) [16] | kinases (468) [18] | kinases (468) [23] | kinases (468) [26] | kinases (468) [28] | kinases (468) [29] | kinases (468) [35]
82%: kinases (468) [31]
90%: kinases (468) [32] | kinases (468) [34]
12%: kinases (468) [3]
99%: kinases (468) [19] | kinases (468) [22] | kinases (468) [25]
94%: kinases (468) [24] | kinases (468) [27]; ABL1(Q252H)-nonphosphorylated | kinases (468) [33]
91%: kinases (468) [21]
93%: kinases (468) [4]
98%: kinases (468) [1] | kinases (468) [2] | kinases (468) [17] | kinases (468) [27]; ABL1(Q252H)-phosphorylated | kinases (468) [30]
77%: kinases (468) [14]; CSF1R-autoinhibited
97%: kinases (468) [20]
96%: kinases (468) [7] | kinases (468) [8]

— PMC9234961 (Journal of Medicinal Chemistry, 2022)
